Laboratory results reported in patent EP0165775A1, “Antifungal azole compounds” (IMPERIAL CHEMICAL INDUSTRIES PLC, priority 1984, dated 1985).

Test system: Candida albicans and Trichophyton mentagrophytes var. quinkeanum
Test: animal or person
Format: in vivo
Conditions: 168 h; female mice, oral dosing twice on day 0 and once daily on days 1-4; skin lesions scored and vaginal samples cultured on day 7; read-out: minimum effective dose (MED)
Experimental: The following Monday (day 0) they are clipped on the back and then dosed orally with test compounds. They are then inoculated with Candida albicans in the vagina and Trichophyton mentagrophytes var. quinkeanum on the back, and then given a second dose of the same compound. Dosing is repeated once daily on days 1-4. On day 7 skin lesions are scored visually and vaginal samples taken for culture on agar. Groups of 5 mice are used and compounds are dosed initially at a level of 250mg./kg. The dose is then reduced sequentially until a minimum effective dose (MED) is found.

OC(Cn1cncn1)(Cn1cnc(Br)n1)c1ccc(F)cc1F (stereo not drawn) [Example 1, 1-(3-bromo-1,2,4-triazol-1-yl)-2-(2,4-difluorophenyl)-3-(1,2,4-triazol-l-yl)propan-2-ol]
minimal effective dose: 2.5 mg/kg
